Measurements from PubChem BioAssay AID256 (DTP/NCI, 2004).
Several values for one entry are separate records, joined by “and”; a condition that tells them apart may be missing. Equal values may be shown once. Toxic doses and inconclusive results are not listed. Rule for the calls: active = survival T/C of 150% or more; inactive = T/C below 125% in these data.

Test system: CD2F1 mice, L1210 leukemia ip, survival T/C
Experiment: NCI In Vivo Anticancer Drug Screen. Data for tumor model L1210 Leukemia (intraperitoneal) in CD2F1 (CDF1) mice
Conditions: endpoint: mean survival time, higher = longer survival
In short: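 Transplantable tumor in mice; compound-treated vs vehicle-treated groups. Read-out = treated/control ratio of the measured endpoint.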

[1] = dose: 100.0 mg/kg/injection, schedule: Q04DX002 (ip), vehicle: saline with Tween-80
[2] = dose: 200.0 mg/kg/injection, schedule: Q04DX002 (ip), vehicle: saline with Tween-80
[3] = dose: 400.0 mg/kg/injection, schedule: Q04DX002 (ip), vehicle: saline with Tween-80
[4] = dose: 25.0 mg/kg/injection, schedule: Q04DX002 (ip), vehicle: saline with Tween-80
[5] = dose: 50.0 mg/kg/injection, schedule: Q04DX002 (ip), vehicle: saline with Tween-80
[6] = dose: 100.0 mg/kg/injection, schedule: Q01DX009 (ip), vehicle: Klucel (hydroxypropylcellulose) (HPC)
[7] = dose: 200.0 mg/kg/injection, schedule: Q01DX009 (ip), vehicle: Klucel (hydroxypropylcellulose) (HPC)
[8] = dose: 50.0 mg/kg/injection, schedule: Q04DX003 (ip), vehicle: saline
[9] = dose: 100.0 mg/kg/injection, schedule: Q04DX003 (ip), vehicle: saline
[10] = dose: 200.0 mg/kg/injection, schedule: Q04DX003 (ip), vehicle: saline

Measured: T/C

Oc1ccc2ccccc2c1
inactive: dose: 10.0 mg/kg/injection, schedule: Q04DX003 (ip), vehicle: Klucel (hydroxypropylcellulose) (HPC) 101 % of control | dose: 20.0 mg/kg/injection, schedule: Q04DX003 (ip), vehicle: Klucel (hydroxypropylcellulose) (HPC) 96 % of control | dose: 40.0 mg/kg/injection, schedule: Q04DX003 (ip), vehicle: Klucel (hydroxypropylcellulose) (HPC) 96 % of control

CC(=O)[O][Hg][O]C(C)=O
inactive: dose: 1.25 mg/kg/injection, schedule: Q01DX009 (ip), vehicle: saline sonified 95 % of control | dose: 2.5 mg/kg/injection, schedule: Q01DX009 (ip), vehicle: saline sonified 103 % of control | dose: 5.0 mg/kg/injection, schedule: Q01DX009 (ip), vehicle: saline sonified 90 % of control | dose: 5.0 mg/kg/injection, schedule: Q04DX003 (ip), vehicle: saline with Tween-80 106 % of control

N#CC1CCCC1=O (stereo not given)
inactive: dose: 5.0 mg/kg/injection, schedule: Q04DX003 (ip), vehicle: saline 101 % of control | dose: 10.0 mg/kg/injection, schedule: Q04DX003 (ip), vehicle: saline 101 % of control | dose: 20.0 mg/kg/injection, schedule: Q04DX003 (ip), vehicle: saline 106 % of control

COC(=O)C1=C(O)C(C(=O)OC)C2/C(=[N+](/[O-])O)c3c(cc([N+](=O)[O-])cc3[N+](=O)[O-])C1C2[N+](=O)[O-] (stereo not given)
inactive: [1] 94 % of control | [2] 105 % of control | [3] 90 % of control

O=c1[nH]c2ccccc2nc1Cl
inactive: [4] 94 % of control | [5] 94 % of control | [1] 94 % of control | [2] 90 % of control | [3] 90 % of control

O=C(O)c1cc2ccccc2cn1
inactive: dose: 50.0 mg/kg/injection, schedule: Q01DX009 (ip), vehicle: saline 108 % of control | dose: 100.0 mg/kg/injection, schedule: Q01DX009 (ip), vehicle: saline 95 % of control

N/C(CCSc1ccccc1N=Cc1ccccc1O)=N/O
inactive: dose: 3.13 mg/kg/injection, schedule: Q01DX009 (ip), vehicle: olive oil, sesame oil, peanut oil 95 % of control | dose: 6.25 mg/kg/injection, schedule: Q01DX009 (ip), vehicle: olive oil, sesame oil, peanut oil 94 % of control | dose: 12.5 mg/kg/injection, schedule: Q01DX009 (ip), vehicle: olive oil, sesame oil, peanut oil 98 % of control | dose: 25.0 mg/kg/injection, schedule: Q01DX009 (ip), vehicle: olive oil, sesame oil, peanut oil 100 % of control | dose: 50.0 mg/kg/injection, schedule: Q01DX009 (ip), vehicle: olive oil, sesame oil, peanut oil 100 % of control

CCOC(=O)C1(C(=O)OCC)CCC(O)N1C(=O)Cc1ccccc1[N+](=O)[O-] (stereo not given)
inactive: [6] 101 % of control | [7] 97 % of control

O=C(O)COc1ccc(Cl)cc1Cl
inactive: dose: 100.0 mg/kg/injection, schedule: Q04DX003 (ip), vehicle: saline sonified 95 % of control | dose: 200.0 mg/kg/injection, schedule: Q04DX003 (ip), vehicle: saline sonified 92 % of control | dose: 400.0 mg/kg/injection, schedule: Q04DX003 (ip), vehicle: saline sonified 95 % of control

O=C1C=CC(=O)C2C3C=CC(C/C=C\C3)C12 (stereo not given)
inactive: dose: 12.5 mg/kg/injection, schedule: Q04DX002 (ip), vehicle: saline with Tween-80 105 % of control | [4] 94 % of control | [5] 94 % of control

CC(C(=O)c1ccccc1)N(C)Cc1ccccc1 (stereo not given)
inactive: [8] 98 % of control | [9] 96 % of control | [10] 93 % of control

O=C1CCC2(c3ccccc3)C1C2c1ccccc1 (stereo not given)
inactive: dose: 100.0 mg/kg/injection, schedule: Q04DX003 (ip), vehicle: saline with Tween-80 110 % of control | dose: 200.0 mg/kg/injection, schedule: Q04DX003 (ip), vehicle: saline with Tween-80 112 % of control | dose: 400.0 mg/kg/injection, schedule: Q04DX003 (ip), vehicle: saline with Tween-80 101 % of control

N=P(N[P+](N)(c1ccccc1)c1ccccc1)(c1ccccc1)c1ccccc1
inactive: dose: 1.56 mg/kg/injection, schedule: Q01DX009 (ip), vehicle: Klucel (hydroxypropylcellulose) (HPC) 103 % of control | dose: 3.12 mg/kg/injection, schedule: Q01DX009 (ip), vehicle: Klucel (hydroxypropylcellulose) (HPC) 103 % of control | dose: 6.25 mg/kg/injection, schedule: Q01DX009 (ip), vehicle: Klucel (hydroxypropylcellulose) (HPC) 91 % of control and 103 % of control

NC1CCCCC1N.NC1CCCCC1N.[Cl-].[Cu+] (stereo not given)
inactive: dose: 1.56 mg/kg/injection, schedule: Q04DX002 (ip), vehicle: saline 97 % of control | dose: 3.13 mg/kg/injection, schedule: Q04DX002 (ip), vehicle: saline 97 % of control | dose: 6.25 mg/kg/injection, schedule: Q04DX002 (ip), vehicle: saline 97 % of control

CC#CN(CC)CC
inactive: dose: 75.0 mg/kg/injection, schedule: Q01DX001 (ip), vehicle: saline 105 % of control | dose: 150.0 mg/kg/injection, schedule: Q01DX001 (ip), vehicle: saline 106 % of control

Cc1nc(N)[nH]c(=O)c1[N+](=O)[O-]
inactive: dose: 100.0 mg/kg/injection, schedule: Q04DX003 (ip), vehicle: other 108 % of control | dose: 200.0 mg/kg/injection, schedule: Q04DX003 (ip), vehicle: other 113 % of control

CCn1c(C)cc(=O)c2ccccc21
inactive: [1] 105 % of control | [2] 94 % of control

COc1ccc(/C=c2\[nH]c(=O)/c(=C/c3ccc(OC)c(OC)c3)[nH]c2=O)cc1OC
inactive: dose: 25.0 mg/kg/injection, schedule: Q01DX009 (ip), vehicle: saline with Tween-80 95 % of control | dose: 50.0 mg/kg/injection, schedule: Q01DX009 (ip), vehicle: saline with Tween-80 103 % of control | dose: 100.0 mg/kg/injection, schedule: Q01DX009 (ip), vehicle: saline with Tween-80 90 % of control

CCOC(=O)Nc1cc(NCC(O)CN(C)c2ccccc2)c([N+](=O)[O-])c(NC(=O)OCC)n1 (stereo not given)
inactive: dose: 100.0 mg/kg/injection, schedule: Q01DX001 (ip), vehicle: carboxymethylcellulose (CMC) 96 % of control | dose: 200.0 mg/kg/injection, schedule: Q01DX001 (ip), vehicle: carboxymethylcellulose (CMC) 91 % of control | dose: 400.0 mg/kg/injection, schedule: Q01DX001 (ip), vehicle: carboxymethylcellulose (CMC) 87 % of control

CC1(C)C=CS1(=O)=O
inactive: [8] 98 % of control | dose: 100.0 mg/kg/injection, schedule: Q01DX001 (ip), vehicle: saline 103 % of control | [9] 96 % of control | dose: 200.0 mg/kg/injection, schedule: Q01DX001 (ip), vehicle: saline 102 % of control | [10] 101 % of control

O=C(O)CCCC1CCc2ccccc2C1 (stereo not given)
inactive: [6] 96 % of control | [7] 102 % of control | dose: 400.0 mg/kg/injection, schedule: Q01DX009 (ip), vehicle: Klucel (hydroxypropylcellulose) (HPC) 97 % of control

CCOC(=O)Cc1nnc2ncnc(N)c2n1
inactive: dose: 100.0 mg/kg/injection, schedule: Q01DX001 (ip), vehicle: other 101 % of control | dose: 200.0 mg/kg/injection, schedule: Q01DX001 (ip), vehicle: other 103 % of control | dose: 400.0 mg/kg/injection, schedule: Q01DX001 (ip), vehicle: other 98 % of control

COc1ccccc1[As](=O)(O)CC(O)COc1ccc(Cl)cc1Cl (stereo not given)
inactive: dose: 6.25 mg/kg/injection, schedule: Q04DX003 (ip), vehicle: saline 98 % of control | dose: 12.5 mg/kg/injection, schedule: Q04DX003 (ip), vehicle: saline 96 % of control
